According to article PMC6600574 (Molecules, 2019):

Columns and labels:
[1] = Nitric oxide scavenging assay (nitroprusside, Griess reagent); format: biochemical; conditions: 10 mM nitroprusside, 90 min, read-out: NO IC50
Procedure: Ethanol (10%) was used as a blank. Nitroprusside (50 μL) at a concentration of 10 mM was added to all the wells. The plates were incubated for 90 min at room temperature. After incubation, Griess reagent (100 μL) was added to all the wells, except for the color controls (negative controls) where instead distilled water was added. The absorbances were read at a wavelength of 546 nm using a BIO-TEK Power-Wave XS multiplate reader. From the absorbances an IC50 value was determined.

[2] = DPPH radical scavenging assay; format: biochemical; conditions: DPPH in ethanol, 30 min
Procedure: Ascorbic acid was serially diluted to a concentration range of 0.78–100 µg/mL. Ethanol (10%) was used as a blank. Ninety microliters of a […] DPPH (2,2-diphenyl-1-picrylhydrazyl) in ethanol were added to each well. The plates were incubated for 30 min and covered in a layer of foil. Color controls (negative controls) were prepared in the exact same manner as above, but distilled water was added to each well instead of DPPH. The absorbances were measured at a wavelength of 515 nm using a BIO-TEK Power-Wave XS multiplate reader (BIO-TEK Instruments, Winooski, VT, USA). From the absorbances an IC50 value was determined.

O=C1O[C@H]([C@@H](O)CO)C(O)=C1O [Ascorbic acid, reference compound]
IC50 [1]: 144 ± 3.3 µM
IC50 [2]: 43.7 ± 1.12 µM
